Measured values published in US8343925B2, “Composition for improving brain function and method for improving brain function” (Calpis Co., Ltd., priority 2009, dated 2013).

Legend:
[1] = system: scopolamine-induced amnesia; experiment: Y-shaped maze test of spontaneous alternation behavior, scopolamine-induced amnesia; format: in vivo; conditions: male ddY mice, scopolamine 1 mg/kg s.c. 30 min before test
Description: Male mice (n=15) of the ddY strain (approximately 7-week old) were used, and they took food and water ad lib. Test substances used were 9.0 mg/kg weight of Ile-Pro-Pro. The test substances were administered to the mice once orally 60 minutes before the execution of a Y-shaped maze test for evaluation of spontaneous alternation behavior. Further, 30 minutes before the execution of the Y-shaped maze test, 1 mg/kg weight of scopolamine was subcutaneously administered on the backs of the mice in order to induce brain dysfunction (dysmnesia and/or cognitive impairment) in the mice. In the Y-shaped maze test, a Y-shaped maze was used as an experimental device, in which the length of each arm was 40 cm, the height of the wall was 12 cm, the width of the floor was 3 cm, and the width of the upper part was 10 cm, and three arms were connected to each other at an angle of 120 degrees. Each of the mice was placed at the tip of any one of the arms of the Y-shaped maze, and then let go to freely explore in the maze for 8 minutes. The sequence of the arms each of the mice entered was recorded. The number of entries by each of the mice for each of the arms during the measurement time was counted to be the total number of entries. […] The percentage of spontaneous alternation behavior was calculated by dividing the number of spontaneous alternation behavior by a number obtained by subtracting 2 from the total number of entries, and multiplying a resultant number by 100. […] The measured values were expressed in the form of mean±standard error for each group. A significant difference between the control group and the scopolamine control group was calculated using Student's t-test.
Male mice (n=15) of the ddY strain (approximately 7-week old) were used, and they took food and water ad lib. […] The arms each of the mice entered were sequentially recorded. The number of entries by each of the mice for each of the arms during the measurement time was counted to be the total number of entries. […]

[2] = biological target: angiotensin-converting enzyme (ACE) (Homo sapiens, UniProt P12821); conditions: cited from earlier work
angiotensin-converting enzyme (ACE), sequence (P12821 30-1306, species assumed): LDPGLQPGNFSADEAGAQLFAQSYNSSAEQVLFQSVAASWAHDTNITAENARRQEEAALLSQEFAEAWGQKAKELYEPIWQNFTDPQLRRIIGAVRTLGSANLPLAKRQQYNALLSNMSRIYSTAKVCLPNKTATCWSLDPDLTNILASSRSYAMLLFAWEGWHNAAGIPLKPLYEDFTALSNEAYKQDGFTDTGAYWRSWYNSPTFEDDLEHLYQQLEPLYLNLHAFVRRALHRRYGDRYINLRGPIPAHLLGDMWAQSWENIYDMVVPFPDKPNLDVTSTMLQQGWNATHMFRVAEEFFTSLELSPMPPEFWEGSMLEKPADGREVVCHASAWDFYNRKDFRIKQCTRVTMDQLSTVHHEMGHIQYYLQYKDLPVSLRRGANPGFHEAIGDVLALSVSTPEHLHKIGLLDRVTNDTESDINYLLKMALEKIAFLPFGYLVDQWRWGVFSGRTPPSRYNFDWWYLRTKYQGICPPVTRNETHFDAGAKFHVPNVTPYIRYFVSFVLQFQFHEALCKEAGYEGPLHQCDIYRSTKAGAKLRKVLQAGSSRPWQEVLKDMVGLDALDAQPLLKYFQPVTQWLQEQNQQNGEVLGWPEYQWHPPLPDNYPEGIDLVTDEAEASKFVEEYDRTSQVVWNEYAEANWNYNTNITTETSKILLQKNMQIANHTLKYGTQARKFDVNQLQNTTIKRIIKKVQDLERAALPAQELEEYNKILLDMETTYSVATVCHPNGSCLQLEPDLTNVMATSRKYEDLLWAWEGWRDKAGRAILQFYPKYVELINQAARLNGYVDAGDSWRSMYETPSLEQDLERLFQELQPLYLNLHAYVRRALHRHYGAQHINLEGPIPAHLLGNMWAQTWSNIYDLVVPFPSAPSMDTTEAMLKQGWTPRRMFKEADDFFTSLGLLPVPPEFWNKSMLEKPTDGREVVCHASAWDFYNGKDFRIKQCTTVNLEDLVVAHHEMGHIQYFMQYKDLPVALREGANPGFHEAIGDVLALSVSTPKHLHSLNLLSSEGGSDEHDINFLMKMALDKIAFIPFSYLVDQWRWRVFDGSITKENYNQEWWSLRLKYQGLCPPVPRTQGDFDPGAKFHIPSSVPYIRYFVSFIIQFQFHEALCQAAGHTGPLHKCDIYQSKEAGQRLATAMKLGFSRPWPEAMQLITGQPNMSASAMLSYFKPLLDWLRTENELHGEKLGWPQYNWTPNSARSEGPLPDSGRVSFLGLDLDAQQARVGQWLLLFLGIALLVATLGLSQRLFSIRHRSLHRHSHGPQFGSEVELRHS

blood pressure = conditions: oral administration; cited from earlier work
[3] = system: increase in blood pressure due to cold stress; conditions: oral administration; cited from earlier work
[4] = 10 mg/kg weight once orally 60 min before test

| Substance | prophylactic activity against amnesia (percentage of spontaneous alternation behavior) [1, 4] | prophylactic activity against amnesia (percentage of spontaneous alternation behavior) ([1]; 9.0 mg/kg weight once orally 60 min before test) | ACE inhibitory activity [2] | hypotensive activity (blood pressure) | inhibitory activities on increase in blood pressure due to cold stress or on decrease in markers of immune function [3] |
| --- | --- | --- | --- | --- | --- |
| Leu-Pro-Pro | had a prophylactic activity against amnesia | – | – | – | – |
| Ile-Pro-Pro | – | had a prophylactic activity against amnesia | has an ACE inhibitory activity | hypotensive lowering activity | exhibit inhibitory activities on increase in blood pressure due to cold stress |
| Ser-Pro-Pro | had a prophylactic activity against amnesia | – | – | – | – |
| Val-Pro-Pro [Val-Pro-Pro (VPP), reference compound] | – | – | – | – | exhibit inhibitory activities on increase in blood pressure due to cold stress |
